Patent US6242601A, “Heterocyclic sulfamides” (Hoffman-La Roche Inc., priority 1999, dated 2001)

How the values were obtained:
isolated rat aorta rings = target: T1, isolated rat aorta rings (Rattus norvegicus, UniProt P26684); assay: Inhibition of endothelin-induced contractions in isolated rat aorta rings; parameters: species or system adult Wistar-Kyoto rats; settings: rat aorta rings without endothelium, 37° C.; endothelin-1 cumulative; from dose ratio; read-out: pA2 (converted)
T1 construct: Rings with a length of 5 mm were cut out from the thorax aorta of adult Wistar-Kyoto rats; from tissue; host or cells: thoracic aorta of adult Wistar-Kyoto rats, endothelium removed
T1 sequence (P26684 21-426): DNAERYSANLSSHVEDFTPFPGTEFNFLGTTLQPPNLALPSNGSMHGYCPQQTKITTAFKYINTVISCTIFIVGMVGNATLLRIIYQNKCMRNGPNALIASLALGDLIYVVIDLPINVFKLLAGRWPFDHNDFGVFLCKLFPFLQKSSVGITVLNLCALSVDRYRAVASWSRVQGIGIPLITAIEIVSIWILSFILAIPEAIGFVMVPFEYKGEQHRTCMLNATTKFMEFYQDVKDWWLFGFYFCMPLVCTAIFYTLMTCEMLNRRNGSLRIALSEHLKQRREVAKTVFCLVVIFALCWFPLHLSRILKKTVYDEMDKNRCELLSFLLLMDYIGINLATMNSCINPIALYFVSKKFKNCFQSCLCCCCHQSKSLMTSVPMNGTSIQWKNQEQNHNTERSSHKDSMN
Description: Rings with a length of 5 mm were cut out from the thorax aorta of adult Wistar-Kyoto rats. The endothelium was removed by lightly rubbing the internal surface. Each ring was immersed at 37° C. in 10 ml of Krebs-Henseleit solution in an isolated bath while gassing with 95% O2 and 5% CO2. The isometric stretching of the rings was measured. The rings were stretched to a pre-tension of 3 g.
The corresponding pA2 value, which is a measure of the activity of the test compound, was calculated using a computer programme according to the following equation from the "dose ratio" DR for each individual dosage-activity curve.
pA2 =log(DR-1)-log(antagonist-concentration)

[1] = target: T2, recombinant human ETA receptors (Homo sapiens, UniProt P25101); assay: Inhibition of endothelin binding on recombinant human ETA receptors expressed in CHO cells ([125I]ET-1, whole attached cells); parameters: expressed in transfected cells; host or cells: CHO cells; settings: 35 pM [125I]ET-1, 2 h, 22° C.
T2 sequence (P25101 21-427): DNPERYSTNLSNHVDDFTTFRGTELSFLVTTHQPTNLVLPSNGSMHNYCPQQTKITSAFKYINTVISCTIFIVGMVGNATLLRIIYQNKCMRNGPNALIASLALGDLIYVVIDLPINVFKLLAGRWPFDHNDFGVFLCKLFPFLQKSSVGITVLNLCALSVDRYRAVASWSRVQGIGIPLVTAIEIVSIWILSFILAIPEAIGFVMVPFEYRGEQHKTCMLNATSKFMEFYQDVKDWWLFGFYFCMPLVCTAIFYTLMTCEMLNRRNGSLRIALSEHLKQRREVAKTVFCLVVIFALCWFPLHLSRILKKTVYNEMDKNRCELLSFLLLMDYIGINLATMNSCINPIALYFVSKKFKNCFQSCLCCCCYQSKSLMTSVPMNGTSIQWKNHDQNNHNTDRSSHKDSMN
Description: II. […] Cell culture. CHO cells, expressing recombinant human ETA receptor are grown in Minimal Essential Alpha Medium (Gibco Laboratories, Paisley, Scotland) supplemented with 0.1 μM methotrexate, 5% dialyzed fetal calf serum, 100 U/ml of penicillin and 100 μg/ml of streptomycin. Binding assays with whole attached cells are performed in 500 μl Dulbecco's Eagle medium (DMEM) containing 2 mg/ml bovine serum albumin and 25 mM Hepes. After incubation (2 h, 22° C.) in the presence of 35 pM [^125 I]ET-1 and increasing concentrations of various antagonists, the cells are extensively washed and finally solubilized in 1% (w/v) SDS, 0.5 M NaOH and 100 mM EDTA. Each assay is performed three times in triplicates and non specific binding is assessed in the presence of 100 nM unlabelled ET-1. Specific binding is defined as the difference between total binding and non specific binding. IC50 values are determined after logit/log transformation of the binding data.

[2] = Pharmacokinetics of the endothelin receptor antagonists after oral gavage in rats; format: in vivo; settings: rat, plasma, 5 mg/kg in DMSO, Wistar rats, bioassay; for AUC: read-out: Area under the plasma concentration time curve; for Cmax: read-out: Peak concentration in rat plasma
Description: IV. […] The test compounds were dissolved in DMSO at a concentration of 5 mg/mL and administered orally by gavage at a dose of 1 mL/kg body weight corresponding to 5 mg/kg body weight. Two rats were administered per test compound. Blood samples were collected from the retro-orbital sinus at 1 and 5 h post dose in one rat, and at 3 and 7 h post dose in the other rat. In addition a terminal 24 h blood sample was collected from both rats by heart puncture. Blood was collected on EDTA-NaF. Plasma was derived by centrifugation at 2000 g at +4° C. for 15 min. Plasma samples were assayed for active drug related material with a bioassay, based on the binding competition of tested compounds and ^125 I ET-1 on recombinant ETA receptors. Quantitation of plasma samples was by comparison to a calibration curve build up from control rat plasma spiked with known concentrations of the test compounds.

| Compound | Kb (isolated rat aorta rings) | IC50 [1] | AUC [2] | Cmax [2] |
| --- | --- | --- | --- | --- |
| COc1ccccc1Oc1c(NS(=O)(=O)c2ccc(C)cn2)nc(-c2cccc(O)c2)nc1OC [Example 1, 5-methyl-pyridine-2-sulfonic acid [2-(3-hydroxy-phenyl)-6-methoxy-5-(2-methoxy-phenoxy)-pyrimidin-4-yl]-amide] | ≤ 6.31 nM | ≤ 10 nM | – | – |
| COc1ccccc1Oc1c(NS(=O)(=O)c2ccc(C)cn2)nc(-c2cccc(OCCO)c2)nc1OC [Example 7, 5-methyl-pyridine-2-sulfonic acid [2-[3-(2-hydroxy-ethoxy)-phenyl]-6-methoxy-5-(2-methoxy-phenoxy)-pyrimidin-4-yl]-amide] | ≤ 6.31 nM | ≤ 10 nM | ≥ 10000 ng·h/mL | ≥ 1500 ng/mL |
| COc1ccccc1Oc1c(NS(=O)(=O)c2ccc(C)cn2)nc(-c2ccnc(C(=O)O)c2)nc1OC [Example 21, 4-[4-methoxy-5-(2-methoxy-phenoxy)-6-(5-methyl-pyridine-2-sulfonylamino)-pyrimidin-2-yl]-pyridine-2-carboxylic acid] | ≤ 6.31 nM | ≤ 10 nM | – | – |
| CCOC(=O)c1cc(-c2nc(NS(=O)(=O)c3ccc(C)cn3)c(Oc3ccccc3OC)c(OC)n2)ccn1 [Example 23, 4-[4-methoxy-5-(2-methoxy-phenoxy)-6-(5-methyl-pyridine-2-sulfonylamino)-pyrimidin-2-yl]-pyridine-2-carboxylic acid ethyl ester] | ≤ 6.31 nM | ≤ 10 nM | – | – |
| COc1ccccc1Oc1c(NS(=O)(=O)c2ccc(C(C)C)cn2)nc(-c2ccnc(C(N)=O)c2)nc1OC [Example 42, 4-[4-(5-isopropyl-pyridine-2-sulfonylamino)-6-methoxy-5-(2-methoxy-phenoxy)-pyrimidin-2-yl]-pyridine-2-carboxylic acid amide] | ≤ 6.31 nM | – | ≥ 10000 ng·h/mL | ≥ 1500 ng/mL |
| COc1ccccc1Oc1c(NS(=O)(=O)c2ccc(C(C)C)cn2)nc(-c2ccnc(CNC(C)=O)c2)nc1OC [Example 52, N-{4-[4-(5-isopropyl-pyridine-2-sulfonylamino)-6-methoxy-5-(2-methoxy-phenoxy)-pyrimidin-2-yl]-pyridin-2-ylmethyl}-acetamide] | ≤ 6.31 nM | – | ≥ 10000 ng·h/mL | ≥ 1500 ng/mL |
| COc1ccccc1Oc1c(NS(=O)(=O)c2ccc(C(C)C)cn2)nc(-c2ccnc(C(=N)NO)c2)nc1OC [Example 55, N-hydroxy-4-[4-(5-isopropyl-pyridine-2-sulfonylamino)-6-methoxy-5-(2-methoxy-phenoxy)-pyrimidin-2-yl]-pyridine-2-carboxamidine] | ≤ 6.31 nM | ≤ 10 nM | – | – |
